Test results from ChEMBL document CHEMBL5390317, “Novel Indane-Containing NBTIs with Potent Anti-Gram-Negative Activity and Minimal hERG Inhibition” (ACS Med Chem Lett, 2023).
pIC50: −log10 of the molar value. ≈ marks a conversion by molar mass, not a printed value. Calls of active or inactive are those of the source. No cut-off for these calls is given here.

Key:
[1] = Stability in mouse microsome; format: ADME; conditions: microsomes
[2] = system: Acinetobacter baumannii; assay: Antibacterial activity against Acinetobacter baumannii ATCC BAA-747 assessed as inhibition in bacterial growth incubated for 20 to 24 hrs by CLSI based broth microdilution method; format: functional; conditions: Acinetobacter baumannii, ATCC BAA-747, time 20-24 hrs; read-out: MIC
[3] = biological target: CYP2D6 (Homo sapiens, UniProt P10635); assay: Inhibition of CYP2D6 (unknown origin) at 10 uM relative to control; format: ADME
Chain of CYP2D6 (P10635 whole entry): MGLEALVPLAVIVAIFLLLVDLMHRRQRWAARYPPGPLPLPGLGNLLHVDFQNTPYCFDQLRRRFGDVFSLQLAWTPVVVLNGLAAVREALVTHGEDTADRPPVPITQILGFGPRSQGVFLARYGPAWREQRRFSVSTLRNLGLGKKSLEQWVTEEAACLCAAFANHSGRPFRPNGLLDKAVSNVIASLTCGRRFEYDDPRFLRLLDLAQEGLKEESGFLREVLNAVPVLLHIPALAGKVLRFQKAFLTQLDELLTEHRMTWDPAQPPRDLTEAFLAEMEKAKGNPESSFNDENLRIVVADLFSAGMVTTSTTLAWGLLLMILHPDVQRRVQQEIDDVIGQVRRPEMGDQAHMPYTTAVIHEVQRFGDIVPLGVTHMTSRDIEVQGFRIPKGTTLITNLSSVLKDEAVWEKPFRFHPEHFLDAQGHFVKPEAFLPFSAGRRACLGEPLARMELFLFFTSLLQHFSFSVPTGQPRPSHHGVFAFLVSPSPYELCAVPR

[4] = system: Klebsiella pneumoniae; assay: Antibacterial activity against Klebsiella pneumoniae ATCC 700603 assessed as inhibition in bacterial growth incubated for 20 to 24 hrs by CLSI based broth microdilution method; format: functional; conditions: Klebsiella pneumoniae, ATCC 700603, time 20-24 hrs; read-out: MIC
[5] = biological target: T1, hERG (KCNH2) (Homo sapiens, UniProt Q12809); assay: Inhibition of hERG potassium channel expressed in CHO cells at 1 uM by electrophysiological patch clamp assay relative to control; format: toxicity, cell-based; conditions: CHO cells expressing hERG
T1 sequence (Q12809 whole entry): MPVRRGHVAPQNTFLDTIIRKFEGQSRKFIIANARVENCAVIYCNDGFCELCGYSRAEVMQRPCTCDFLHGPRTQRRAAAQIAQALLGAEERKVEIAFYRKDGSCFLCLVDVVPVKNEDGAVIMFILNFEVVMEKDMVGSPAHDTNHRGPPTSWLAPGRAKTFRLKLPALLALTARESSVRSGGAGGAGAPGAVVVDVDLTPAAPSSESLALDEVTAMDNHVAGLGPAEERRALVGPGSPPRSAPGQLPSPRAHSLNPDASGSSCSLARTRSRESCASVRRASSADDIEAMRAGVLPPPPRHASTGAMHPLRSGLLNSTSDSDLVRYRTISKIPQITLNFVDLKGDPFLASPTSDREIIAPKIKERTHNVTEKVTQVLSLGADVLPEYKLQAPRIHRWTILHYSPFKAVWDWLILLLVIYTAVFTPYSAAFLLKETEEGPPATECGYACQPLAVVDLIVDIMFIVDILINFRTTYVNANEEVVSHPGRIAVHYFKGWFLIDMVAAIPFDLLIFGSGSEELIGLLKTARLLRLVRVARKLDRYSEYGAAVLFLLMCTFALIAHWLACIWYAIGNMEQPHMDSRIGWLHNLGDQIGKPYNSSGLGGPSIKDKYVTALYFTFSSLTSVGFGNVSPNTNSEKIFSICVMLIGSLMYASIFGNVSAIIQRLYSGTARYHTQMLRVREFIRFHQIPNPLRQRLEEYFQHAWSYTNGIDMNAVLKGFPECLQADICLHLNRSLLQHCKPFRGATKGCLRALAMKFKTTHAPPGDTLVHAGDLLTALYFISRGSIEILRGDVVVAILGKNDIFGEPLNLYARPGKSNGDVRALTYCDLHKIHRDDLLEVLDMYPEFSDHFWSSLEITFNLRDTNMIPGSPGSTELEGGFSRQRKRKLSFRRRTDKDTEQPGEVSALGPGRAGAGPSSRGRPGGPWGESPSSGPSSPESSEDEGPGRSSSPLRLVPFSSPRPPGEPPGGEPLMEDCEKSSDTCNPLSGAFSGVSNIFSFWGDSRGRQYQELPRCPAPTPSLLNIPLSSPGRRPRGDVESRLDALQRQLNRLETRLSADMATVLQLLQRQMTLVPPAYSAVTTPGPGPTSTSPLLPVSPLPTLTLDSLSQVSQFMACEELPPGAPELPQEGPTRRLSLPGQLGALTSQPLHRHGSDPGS

[6] = system: Staphylococcus aureus; assay: Antibacterial activity against Staphylococcus aureus ATCC BAA-1556 assessed as inhibition in bacterial growth incubated for 20 to 24 hrs by CLSI based broth microdilution method; format: functional; conditions: Staphylococcus aureus, ATCC BAA-1556, time 20-24 hrs; read-out: MIC
[7] = system: Pseudomonas aeruginosa; assay: Bactericidal effect against pseudomonas aeruginosa ATCC 27853 infected in neutropenic CD-1 lung infection mouse model assessed as reduction in colony forming unit in lung at 45 mg/kg, sc TID administered at […] interval for 24 hrs; format: functional
[8] = biological target: Voltage-gated inwardly rectifying potassium channel KCNH2 (Homo sapiens, UniProt Q12809); assay: (§1) Inhibition of hERG potassium channel expressed in CHO cells by electrophysiological patch clamp assay; format: toxicity, cell-based
Chain of Voltage-gated inwardly rectifying potassium channel KCNH2 (Q12809 whole entry): as above

[9] = biological target: T1, hERG (KCNH2); assay: as §1; format: toxicity, cell-based; conditions: human, CHO cells expressing hERG
[10] = system: Escherichia coli; assay: Antibacterial activity against Escherichia coli ATCC 25922 assessed as inhibition in bacterial growth incubated for 20 to 24 hrs by CLSI based broth microdilution method; format: functional; conditions: time 20-24 hrs
[11] = Stability in human hepatocyte; format: ADME, cell-based; conditions: hepatocytes
[12] = system: Klebsiella pneumoniae; assay: Antibacterial activity against Klebsiella pneumoniae ATCC BAA-1705 assessed as inhibition in bacterial growth incubated for 20 to 24 hrs by CLSI based broth microdilution method; format: functional; conditions: time 20-24 hrs
[13] = Cytotoxicity against HEK293 cells; format: toxicity, cell-based; conditions: human
[14] = Stability in mouse hepatocyte; format: ADME, cell-based; conditions: hepatocytes
[15] = system: Acinetobacter baumannii; assay: Antibacterial activity against Acinetobacter baumannii ATCC 19606 assessed as inhibition in bacterial growth incubated for 20 to 24 hrs by CLSI based broth microdilution method; format: functional; conditions: time 20-24 hrs
[16] = Protein binding in human plasma assessed as free fraction; format: ADME, cell-free
[17] = system: Pseudomonas aeruginosa; assay: Antibacterial activity against Pseudomonas aeruginosa NCTC 11451 assessed as inhibition in bacterial growth incubated for 20 to 24 hrs by CLSI based broth microdilution method; format: functional; conditions: Pseudomonas aeruginosa, NCTC 11451, time 20-24 hrs; read-out: MIC
[18] = system: Acinetobacter baumannii; assay: Antibacterial activity against Acinetobacter baumannii ATCC 51432 assessed as inhibition in bacterial growth incubated for 20 to 24 hrs by CLSI based broth microdilution method; format: functional; conditions: Acinetobacter baumannii, ATCC 51432, time 20-24 hrs; read-out: MIC
[19] = system: Escherichia coli; assay: Antibacterial activity against Escherichia coli ATCC 35218 assessed as inhibition in bacterial growth incubated for 20 to 24 hrs by CLSI based broth microdilution method; format: functional; conditions: Escherichia coli, ATCC 35218, time 20-24 hrs; read-out: MIC
[20] = Stability in human microsome; format: ADME; conditions: microsomes
[21] = system: Klebsiella pneumoniae; assay: Antibacterial activity against Klebsiella pneumoniae ATCC 10031 assessed as inhibition in bacterial growth incubated for 20 to 24 hrs by CLSI based broth microdilution method; format: functional; conditions: time 20-24 hrs
[22] = Stability in rat hepatocyte; format: ADME, cell-based; conditions: hepatocytes
[23] = Protein binding in mouse plasma assessed as free fraction; format: ADME, cell-free
[24] = system: Pseudomonas aeruginosa; assay: Antibacterial activity against Pseudomonas aeruginosa NCTC 13437 assessed as inhibition in bacterial growth incubated for 20 to 24 hrs by CLSI based broth microdilution method; format: functional; conditions: Pseudomonas aeruginosa, NCTC 13437, time 20-24 hrs; read-out: MIC
[25] = system: Escherichia coli; assay: Antibacterial activity against Escherichia coli K-12 BW25113 assessed as inhibition in bacterial growth incubated for 20 to 24 hrs by CLSI based broth microdilution method; format: functional; conditions: Escherichia coli, K-12 BW25113, time 20-24 hrs; read-out: MIC
[26] = system: Pseudomonas aeruginosa; assay: Bacteriostatic effect against pseudomonas aeruginosa ATCC 27853 infected in neutropenic CD-1 lung infection mouse model assessed as reduction in colony forming unit at 15 mg/kg, sc TID administered at 8 hrs interval for 24 hrs; format: functional, organism-based
[27] = system: Klebsiella pneumoniae; assay: Antibacterial activity against Klebsiella pneumoniae ATCC BAA-2146 assessed as inhibition in bacterial growth incubated for 20 to 24 hrs by CLSI based broth microdilution method; format: functional; conditions: Klebsiella pneumoniae, ATCC BAA-2146, time 20-24 hrs; read-out: MIC
[28] = biological target: DNA gyrase (Escherichia coli, UniProt P0AES4+P0AES6); assay: Inhibition of Escherichia coli DNA gyrase incubated for 80 mins by Transcreener ADP2 FI assay; format: protein-complex assay
[29] = Aqueous solubility of the compound at pH 6.5 at > 0.5 mg/ml; format: physicochemical; conditions: buffer
[30] = system: Escherichia coli; assay: Antibacterial activity against Escherichia coli ATCC BAA-2340 assessed as inhibition in bacterial growth incubated for 20 to 24 hrs by CLSI based broth microdilution method; format: functional; conditions: Escherichia coli, ATCC BAA-2340, time 20-24 hrs; read-out: MIC
[31] = system: Pseudomonas aeruginosa; assay: Antibacterial activity against pseudomonas aeruginosa ATCC 27853 infected in neutropenic CD-1 lung infection mouse model assessed as reduction in colony forming unit in lung at 15 mg/kg, sc TID administered at 8 hrs interval for 24 hrs; format: functional, organism-based
[32] = Stability in rat microsome; format: ADME; conditions: microsomes
[33] = Inhibition of Escherichia coli topoisomerase 4 incubated for 120 mins by Transcreener ADP2 FI assay
[34] = Drug excretion in Wistar-Han rat urine assessed as parent compound remaining at 3 mg/kg, iv administered upto 48 hrs by LC-MS/MS method; format: ADME, organism-based; conditions: read-out: Drug excretion
[35] = Protein binding in rat plasma assessed as free fraction; format: ADME, cell-free
[36] = system: Pseudomonas aeruginosa; assay: Antibacterial activity against Pseudomonas aeruginosa ATCC 27853 assessed as inhibition in bacterial growth incubated for 20 to 24 hrs by CLSI based broth microdilution method; format: functional; conditions: time 20-24 hrs
[37] = biological target: CYP3A4 (Homo sapiens, UniProt P08684); assay: Inhibition of CYP3A4 (unknown origin) at 10 uM relative to control; format: ADME
Chain of CYP3A4 (P08684 whole entry): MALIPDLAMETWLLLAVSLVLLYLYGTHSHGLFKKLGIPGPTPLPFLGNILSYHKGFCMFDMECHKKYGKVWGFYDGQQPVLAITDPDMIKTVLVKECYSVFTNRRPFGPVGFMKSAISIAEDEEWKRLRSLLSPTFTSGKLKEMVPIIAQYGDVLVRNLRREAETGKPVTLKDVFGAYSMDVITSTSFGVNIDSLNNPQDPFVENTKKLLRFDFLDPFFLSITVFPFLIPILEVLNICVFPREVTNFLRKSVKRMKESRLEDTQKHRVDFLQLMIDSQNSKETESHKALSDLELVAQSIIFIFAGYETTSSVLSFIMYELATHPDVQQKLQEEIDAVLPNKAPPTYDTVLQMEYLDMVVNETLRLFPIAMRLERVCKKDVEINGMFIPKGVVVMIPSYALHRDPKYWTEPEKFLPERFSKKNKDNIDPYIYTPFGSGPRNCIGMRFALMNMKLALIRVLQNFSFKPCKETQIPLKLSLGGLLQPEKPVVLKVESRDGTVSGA

[38] = system: Escherichia coli; assay: Antibacterial activity against Escherichia coli K-12 BW25113 deltaTolC assessed as inhibition in bacterial growth incubated for 20 to 24 hrs by CLSI based broth microdilution method; format: functional; conditions: time 20-24 hrs
[39] = biological target: CYP2C9 (Homo sapiens, UniProt P11712); assay: Inhibition of CYP2C9 (unknown origin) at 10 uM relative to control; format: ADME
Chain of CYP2C9 (P11712 whole entry): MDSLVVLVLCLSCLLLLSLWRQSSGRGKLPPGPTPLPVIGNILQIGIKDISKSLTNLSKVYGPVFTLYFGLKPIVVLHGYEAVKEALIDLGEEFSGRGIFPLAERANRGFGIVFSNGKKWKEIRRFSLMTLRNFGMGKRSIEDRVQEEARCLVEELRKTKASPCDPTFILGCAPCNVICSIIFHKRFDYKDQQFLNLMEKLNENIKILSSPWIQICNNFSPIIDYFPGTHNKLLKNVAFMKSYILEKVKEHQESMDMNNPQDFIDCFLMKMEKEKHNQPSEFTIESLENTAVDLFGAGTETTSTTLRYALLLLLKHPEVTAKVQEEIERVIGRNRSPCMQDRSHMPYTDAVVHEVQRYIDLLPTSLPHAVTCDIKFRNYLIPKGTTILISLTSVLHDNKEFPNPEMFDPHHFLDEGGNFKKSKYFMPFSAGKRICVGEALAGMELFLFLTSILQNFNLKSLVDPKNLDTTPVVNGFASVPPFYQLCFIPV

[40] = system: Staphylococcus aureus; assay: Antibacterial activity against Staphylococcus aureus ATCC 29213 assessed as inhibition in bacterial growth incubated for 20 to 24 hrs by CLSI based broth microdilution method; format: functional; conditions: Staphylococcus aureus, ATCC 29213; time 20-24 hrs; read-out: MIC
[41] = biological target: T1, hERG (KCNH2); assay: Inhibition of hERG potassium channel expressed in CHO cells at 10 uM by electrophysiological patch clamp assay relative to control; format: toxicity, cell-based; conditions: CHO cells expressing hERG
[42] = system: Pseudomonas aeruginosa; assay: Antibacterial activity against pseudomonas aeruginosa ATCC 27853 infected in neutropenic CD-1 lung infection mouse model assessed as reduction in colony forming unit in lung at 45 mg/kg, sc TID administered for 24 hrs; format: functional, organism-based

NC1(COc2cc(F)c3c(c2)CC(CNCCC2CN(c4cnc5c(n4)NC(=O)CO5)C(=O)O2)C3)CC1 (configuration not stated)
Stability [1]: Stable | MIC [2]: 0.5 µg/mL (≈ 0.976 µM) | inhibition at 10 µM [3]: < 25% | MIC [4]: 1 µg/mL (≈ 1.95 µM) | inhibition at 1 µM [5]: < 1% | MIC [6]: 0.5 µg/mL (≈ 0.976 µM) | Activity [7]: 2.6 log10CFU | pIC50 [8]: < 4.70 | IC20 [9]: > 10000 nM | MIC [10]: 0.125 µg/mL (≈ 0.244 µM) | Stability [11]: Stable | MIC [12]: 1 µg/mL (≈ 1.95 µM) | CC50 [13]: > 100000 nM | Stability [14]: Stable | MIC [15]: 2 µg/mL (≈ 3.9 µM) | fraction unbound [16]: 0.4 | MIC [17]: 1 µg/mL (≈ 1.95 µM) | MIC [18]: 2 µg/mL (≈ 3.9 µM) | MIC [19]: 0.125 µg/mL (≈ 0.244 µM) | Stability [20]: Stable | MIC [21]: ≤ 0.06 µg/mL | Stability [22]: Stable | fraction unbound [23]: 0.4 | MIC [24]: 1 µg/mL (≈ 1.95 µM) | MIC [25]: 0.06 µg/mL (≈ 0.117 µM) | Activity [26]: inactive | MIC [27]: 2 µg/mL (≈ 3.9 µM) | pIC50 [28]: 7.22 | solubility [29]: Soluble | MIC [30]: 0.25 µg/mL (≈ 0.488 µM) | Activity [31]: Active | Stability [32]: Stable | pIC50 [33]: 7.52 | dose excreted at 48 h [34]: 5% | fraction unbound [35]: 0.32 | MIC [36]: 0.25 µg/mL (≈ 0.488 µM) | inhibition at 10 µM [37]: < 25% | MIC [38]: ≤ 0.06 µg/mL | inhibition at 10 µM [39]: < 25% | MIC [40]: 0.125 µg/mL (≈ 0.244 µM) | inhibition at 10 µM [41]: < 1% | Activity [42]: Active
